# Calls of active or inactive are those of the source. The rule behind the calls is not given here.
# Tested on: HTR5A counterscreen cells, luminescence, activation
# Assay: HTR5A agonist-like luminescent signal – cell-based, luminescence, dose response, set 2, counter-screen for OPRM1-OPRD1 heterodimer activator project, late-stage follow-up (AID 651765)
row,SMILES,EC50
1,CCOC(=O)C1(CC2CC2)CCN(Cc2ccc(NC(C)=O)cc2)CC1,> 50 µM (inactive)
2,CCOC(=O)C1CCN(CCC(=O)Nc2ccc(C)cc2)CC1,> 50 µM (inactive)
3,CCOC(=O)C1(CCc2ccccc2)CCN(Cc2ccc(O)cc2)CC1,> 50 µM (inactive)
4,CCOC(=O)C1(CCc2ccccc2)CCN(Cc2ccncc2)CC1,> 50 µM (inactive)
5,C=Cc1ccc(C(=O)N2CCC(CCc3ccccc3)(C(=O)OCC)CC2)cc1,> 50 µM (inactive)
6,CCOC(=O)C1(CCOC)CCN(Cc2ccc(NC(C)=O)cc2)CC1,> 50 µM (inactive)
7,CCOC(=O)C1CCN(C(=O)c2ccc(N(C)C)cc2)CC1,> 50 µM (inactive)
8,CCOC(=O)C1(CCc2ccccc2)CCN(Cc2c(O)cccc2OC)CC1,> 50 µM (inactive)
9,CCOC(=O)C1(CCOc2ccccc2)CCCN(Cc2ccc(NC(C)=O)cc2)C1 (stereo not drawn),> 50 µM (inactive)
10,CCOC(=O)C1(Cc2ccccc2)CCCN(Cc2ccc(NC(C)=O)cc2)C1 (stereo not drawn),> 50 µM (inactive)
11,CC(=O)Nc1ccc(CN2CCCC(CO)(CCc3ccccc3)C2)cc1 (stereo not drawn),> 50 µM (inactive)
12,O=C(O)C1CCCCC1C(=O)Nc1ccc(CN2CCCCC2)cc1 (stereo not drawn),> 50 µM (inactive)
13,CCOC(=O)C1CCN(Cc2ccc(NC(C)=O)cc2)CC1,> 50 µM (inactive)
14,CCOC(=O)C1(CCc2ccccc2)CCN(Cc2ccc(OC)cc2)CC1,> 50 µM (inactive)
15,CCOC(=O)C1(CCc2ccccc2)CCN(Cc2ccc(C#CC(C)(C)O)cc2)CC1,> 50 µM (inactive)
16,CCOC(=O)C1(CC2CC2)CCN(C(=O)c2ccc(N3CCCCC3)cc2)CC1,> 50 µM (inactive)
17,CCOC(=O)C1CCN(Cc2ccc(N(C)C)cc2)CC1,> 50 µM (inactive)
18,CCOC(=O)C1(Cc2ccc(OC)cc2)CCN(C(=O)c2ccc(N(C)C)cc2)CC1,> 50 µM (inactive)
19,CCOC(=O)C1(CCOC)CCCN(Cc2ccc(NC(C)=O)cc2)C1 (stereo not drawn),> 50 µM (inactive)
20,CCOC(=O)C1(CCOC)CCN(Cc2ccc(N(C)c3ccccc3)cc2)CC1,> 50 µM (inactive)
21,CCOC(=O)C1(Cc2ccccc2C)CCCN(Cc2ccc(NC(C)=O)cc2)C1 (stereo not drawn),> 50 µM (inactive)
22,CCOC(=O)C1(CCc2ccccc2)CCN(C(=O)Nc2ccc(C)cc2C)CC1,> 50 µM (inactive)
23,CCOC(=O)C1(Cc2ccccc2Cl)CCN(Cc2ccc(NC(C)=O)cc2)CC1,> 50 µM (inactive)
24,CCOC(=O)C1(CCc2ccccc2)CCCN(Cc2ccc(N3CCNC3=O)cc2)C1 (stereo not drawn),> 50 µM (inactive)
25,CCOC(=O)C1(Cc2cccc(OC)c2)CCCN(Cc2ccc(NC(C)=O)cc2)C1 (stereo not drawn),> 50 µM (inactive)
26,CCOC(=O)C1CCCCN1Cc1ccc(NC(C)=O)cc1 (stereo not drawn),> 50 µM (inactive)
27,CCOC(=O)C1(CCc2ccccc2)CCN(Cc2ccc(C(=O)OC)cc2)CC1,> 50 µM (inactive)
28,C=Cc1ccc(C(=O)N2CCC(CCCc3ccccc3)(C(=O)OCC)CC2)cc1,> 50 µM (inactive)
